This passage reports excess molar enthalpy results from the NIST ThermoML archive (doi:10.1021/je500088z).

A short description of this data set: excess molar enthalpy (molar enthalpy of mixing); xn = mol fraction of the nth substance listed. To be noted: 308.15 K, 101 kPa, Liquid, Calvet calorimetry.

Each structure is given as a SMILES string. Numbers after ± are expanded uncertainties.

For the molecule `C1CCNCC1` [piperidine] + C1COCCN1, the excess molar enthalpy is, setting by setting: (x2 = 0.126) 0.0251 ± 0.000956 kcal/mol; (x2 = 0.2) 0.0375 ± 0.0012 kcal/mol; (x2 = 0.33) 0.0531 ± 0.00167 kcal/mol; (x2 = 0.435) 0.0605 ± 0.00191 kcal/mol; (x2 = 0.499) 0.0631 ± 0.00191 kcal/mol; (x2 = 0.601) 0.0626 ± 0.00191 kcal/mol. For the same molecule, the excess molar enthalpy (x2 = 0.701) worked out at 0.0564 ± 0.00167 kcal/mol, the excess molar enthalpy (x2 = 0.802) stood at 0.0447 ± 0.00143 kcal/mol and the excess molar enthalpy (x2 = 0.901) was determined as 0.0261 ± 0.000956 kcal/mol.

As for `C1CCNCC1` [piperidine] + C1COCCO1, the excess molar enthalpy is 0.0853 ± 0.00263 kcal/mol (x2 = 0.113); 0.131 ± 0.00406 kcal/mol (x2 = 0.2); 0.167 ± 0.00526 kcal/mol (x2 = 0.297); 0.188 ± 0.00574 kcal/mol (x2 = 0.401); 0.195 ± 0.00598 kcal/mol (x2 = 0.515); 0.186 ± 0.00574 kcal/mol (x2 = 0.6). Besides, the excess molar enthalpy amounted to 0.159 ± 0.00502 kcal/mol (x2 = 0.703), 0.108 ± 0.00335 kcal/mol (x2 = 0.825) and 0.0655 ± 0.00215 kcal/mol (x2 = 0.9).
